Measured values as given in US8030336B2, “Nicotinamide-based kinase inhibitors” (YM Biosciences Australia Pty Ltd, priority 2002, dated 2011).

Assays:
Format in all cases: biochemical
Zap70 = target: T1, Zap70 (Homo sapiens, UniProt P43403); test: Zap70 kinase assay (ELISA or Alphascreen); details: read-out: Zap70 inhibition of enzyme activity
T1 sequence (P43403 338-600 limits assumed): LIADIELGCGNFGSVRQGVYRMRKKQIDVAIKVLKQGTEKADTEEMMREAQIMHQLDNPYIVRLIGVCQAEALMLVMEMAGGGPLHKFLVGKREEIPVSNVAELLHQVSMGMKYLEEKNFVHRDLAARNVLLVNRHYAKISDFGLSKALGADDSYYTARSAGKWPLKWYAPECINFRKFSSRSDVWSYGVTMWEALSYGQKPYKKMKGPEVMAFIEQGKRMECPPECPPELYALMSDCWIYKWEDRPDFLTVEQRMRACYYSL
Procedure: (§1) Kinase assays were performed in a 96 well capture-based ELISA assay or in 384 well Optiplates (Packard) using an Alphascreen Protein Tyrosine Kinase kit. In either case using approximately 1.5 μg of affinity purified PTK domain in the presence of 50 mM HEPES, pH 7.5, 10 mM MgCl2, 150 mM NaCl and 10 μM-1 mM ATP. The biotinylated substrate biotin-EGPWLEEEEEAYGWMDF-NH2 (SEQ ID NO:9) (final concentration 5 μM) was used as substrate. In the ELISA assay tyrosine phosphorylation was quantitated following transfer to an avidin coated ELISA plate using peroxidase-linked anti-phosphotyrosine antibody PY20. In the Alphascreen assay, Alphascreen phosphotyrosine acceptor beads followed by streptavidin donor beads were added under subdued light. The ELISA plates were read on a BMG Fluorostar, the Alphascreen plates were read on a Packard Fusion Alpha. Inhibitors were added to the assays fifteen minutes prior to the addition of ATP. Inhibitors were added in aqueous […] concentrations never exceeding 1%.

fms = target: T2, fms (Homo sapiens, UniProt P07333); test: fms kinase assay (ELISA or Alphascreen); details: read-out: fms inhibition of enzyme activity
T2 sequence (P07333 582-910 limits assumed): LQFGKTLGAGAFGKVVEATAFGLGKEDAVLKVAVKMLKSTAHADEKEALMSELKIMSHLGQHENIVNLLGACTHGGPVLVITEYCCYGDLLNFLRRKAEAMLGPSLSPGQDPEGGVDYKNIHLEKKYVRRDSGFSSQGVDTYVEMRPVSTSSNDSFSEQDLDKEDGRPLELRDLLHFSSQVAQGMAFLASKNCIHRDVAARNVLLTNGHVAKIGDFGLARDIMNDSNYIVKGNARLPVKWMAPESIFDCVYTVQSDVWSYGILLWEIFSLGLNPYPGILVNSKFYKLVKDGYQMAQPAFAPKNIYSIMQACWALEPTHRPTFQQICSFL
Procedure: as §1

fes = fes (Homo sapiens, UniProt P07332); test: fes kinase assay (ELISA or Alphascreen); details: read-out: fes inhibition of enzyme activity
Procedure: as §1

human JAK2 = target: T3, human JAK2 (Homo sapiens, UniProt O60674); test: JAK2 kinase assay (ELISA or Alphascreen); details: read-out: Jak2 inhibition of enzyme activity
T3 construct: The kinase domain of human JAK2 was amplified from U937mRNA; His tag (from the pFastBac HTc vector) (N); made in house; host or cells: baculovirus; Sf9 for virus, High Five insect cells for production
Description: The kinase domain of human JAK2 was amplified from U937mRNA using the polymerase chain reaction with the following primers: […]
JAK2 PCR products were doped into the pFastBac HTc expression vector (Gibco) via the Sal I and Not I sites. The JAK2 plasmid was than transformed into competent DH10Bac cells (Gibco), and the recombinant baculovirus produced prepared for transfection into Sf9 insect cells.
(§2) Baculovirus preparations from each of the JAK family members were infected into five liters of High Five cells (Invitrogen) grown in High Five serum free medium (Invitrogen) to a cell density of approximately 1-2×10^6 cells/ml. Cells are infected with virus at a MOI of 0.8-3.0. Cells were harvested and lysed. JAK kinase domains were purified by affinity chromatography on a Probond (Invitrogen) nickel chelate affinity column.
as §1

hck = hck (Homo sapiens, UniProt P08631); test: hck kinase assay (ELISA or Alphascreen); details: read-out: hck inhibition of enzyme activity
Procedure: as §1

abl = target: T4, abl (Homo sapiens, UniProt P00519); test: abl kinase assay (ELISA or Alphascreen); details: read-out: abl inhibition of enzyme activity
T4 sequence (P00519 242-493 limits assumed): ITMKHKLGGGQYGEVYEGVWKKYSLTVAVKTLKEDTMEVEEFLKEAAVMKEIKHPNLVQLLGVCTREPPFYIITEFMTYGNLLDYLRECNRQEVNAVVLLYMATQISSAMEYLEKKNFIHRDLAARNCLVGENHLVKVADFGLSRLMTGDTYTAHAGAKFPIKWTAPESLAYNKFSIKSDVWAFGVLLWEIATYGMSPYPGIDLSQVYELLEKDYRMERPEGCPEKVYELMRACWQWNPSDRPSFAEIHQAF
Procedure: as §1

human JAK3 = target: T5, human JAK3 (Homo sapiens, UniProt P52333); test: JAK3 kinase assay (ELISA or Alphascreen); details: read-out: Jak3 inhibition of enzyme activity
T5 construct: The kinase domain of human JAK3 was amplified from U937mRNA; His tag (from the pFastBac HTb vector) (N); made in house; host or cells: baculovirus; Sf9 for virus, High Five insect cells for production
Description: The kinase domain of human JAK3 was amplified from U937mRNA using the polymerase chain reaction with the following primers: […]
JAK3 PCR products were cloned into the pFastBac HTb expression vector (Gibco) via the Xho I and Kpn I sites. The JAK3 plasmid was then transformed into competent DH10Bac cells (Gibco), and the recombinant baculovirus produced prepared for transfection into Sf9 insect cells.
as §2, §1

T3 sequence (O60674 849-1124 limits assumed): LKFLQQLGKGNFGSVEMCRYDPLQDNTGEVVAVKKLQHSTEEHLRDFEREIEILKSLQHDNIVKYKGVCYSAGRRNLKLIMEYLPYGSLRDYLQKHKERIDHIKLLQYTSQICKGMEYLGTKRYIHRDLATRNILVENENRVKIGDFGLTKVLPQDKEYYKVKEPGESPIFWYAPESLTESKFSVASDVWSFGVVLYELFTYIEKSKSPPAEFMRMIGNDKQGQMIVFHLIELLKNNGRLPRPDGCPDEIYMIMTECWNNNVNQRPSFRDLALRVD
T5 sequence (P52333 822-1111 limits assumed): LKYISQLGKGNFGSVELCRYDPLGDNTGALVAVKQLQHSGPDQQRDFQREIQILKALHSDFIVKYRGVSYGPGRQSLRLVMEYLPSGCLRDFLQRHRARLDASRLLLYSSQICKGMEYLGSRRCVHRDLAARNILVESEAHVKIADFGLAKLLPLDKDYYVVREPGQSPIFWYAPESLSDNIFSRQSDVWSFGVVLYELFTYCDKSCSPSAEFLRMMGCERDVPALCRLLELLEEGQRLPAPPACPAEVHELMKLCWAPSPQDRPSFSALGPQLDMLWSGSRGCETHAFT
Sequence of fes (P07332 561-822 limits assumed, species assumed): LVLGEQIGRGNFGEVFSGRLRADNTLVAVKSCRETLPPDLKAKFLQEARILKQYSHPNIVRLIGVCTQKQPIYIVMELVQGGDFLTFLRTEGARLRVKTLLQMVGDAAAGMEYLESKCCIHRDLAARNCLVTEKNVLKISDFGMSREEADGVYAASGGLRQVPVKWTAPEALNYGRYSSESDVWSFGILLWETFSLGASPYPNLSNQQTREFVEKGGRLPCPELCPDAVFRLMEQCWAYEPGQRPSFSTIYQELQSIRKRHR
Sequence of hck (P08631 262-515 limits assumed, species assumed): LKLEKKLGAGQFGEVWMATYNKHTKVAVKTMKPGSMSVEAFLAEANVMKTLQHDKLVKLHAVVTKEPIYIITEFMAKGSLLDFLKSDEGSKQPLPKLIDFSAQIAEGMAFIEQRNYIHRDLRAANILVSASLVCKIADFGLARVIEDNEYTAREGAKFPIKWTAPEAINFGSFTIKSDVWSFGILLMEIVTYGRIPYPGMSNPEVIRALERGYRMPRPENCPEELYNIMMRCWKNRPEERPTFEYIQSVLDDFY

Compound | inhibition at 10 µM (Zap70) [%] | inhibition at 10 µM (fms) [%] | inhibition at 10 µM (fes) [%] | inhibition at 10 µM (human JAK2) [%] | inhibition at 10 µM (hck) [%] | inhibition at 10 µM (abl) [%] | inhibition at 10 µM (human JAK3) [%]
CC(C)C(CO)NC(=O)c1cncc(-c2ccc(F)cc2)c1 (stereo not drawn) | < 50 | < 50 | < 50 | < 50 | < 50 | < 50 | –
Cc1ccccc1NC(=O)c1cncc(-c2cccs2)c1 | < 50 | – | < 50 | < 50 | ≥ 50 | < 50 | < 50
COc1cccc(-c2cncc(C(=O)N[C@@H](C)c3ccccc3)c2)c1 | < 50 | – | < 50 | < 50 | < 50 | < 50 | < 50
COc1ccc(NC(=O)c2cncc(-c3cc(OC)c(OC)c(OC)c3)c2)c(OC)c1 | < 50 | < 50 | < 50 | – | < 50 | < 50 | –
COc1cc(-c2cncc(C(=O)NCCO)c2)cc(OC)c1OC | ≥ 50 | < 50 | < 50 | – | < 50 | < 50 | –
Cc1ccccc1NC(=O)c1cncc(-c2ccc3c(c2)OCO3)c1 | < 50 | – | < 50 | < 50 | ≥ 50 | < 50 | < 50
COc1cc(-c2cncc(C(=O)NCc3ccncc3)c2)c(Cl)c(OC)c1OC | < 50 | < 50 | < 50 | < 50 | < 50 | < 50 | –
O=C(NCCc1ccccc1)c1cncc(-c2cccs2)c1 | < 50 | – | < 50 | < 50 | < 50 | < 50 | < 50
O=C(NCCO)c1cncc(-c2ccc3c(c2)OCO3)c1 | < 50 | – | – | < 50 | < 50 | < 50 | < 50
O=C(NCCc1ccccc1)c1cncc(-c2ccc3c(c2)OCO3)c1 | < 50 | – | < 50 | < 50 | < 50 | < 50 | < 50
COc1cc(-c2cncc(C(=O)NCCO)c2)ccc1O | < 50 | – | < 50 | < 50 | < 50 | < 50 | < 50
Cc1cc(F)ccc1NC(=O)c1cncc(-c2cccnc2)c1 | < 50 | < 50 | < 50 | – | < 50 | < 50 | –
COc1cc(-c2cncc(C(=O)Nc3ccccc3)c2)c(Cl)c(OC)c1OC | < 50 | – | < 50 | < 50 | < 50 | < 50 | < 50
C[C@@H](NC(=O)c1cncc(-c2cccs2)c1)c1ccccc1 | < 50 | – | < 50 | < 50 | < 50 | < 50 | < 50
Cc1cc(F)ccc1NC(=O)c1cncc(-c2ccncc2)c1 | < 50 | < 50 | < 50 | – | < 50 | < 50 | –
COc1cccc(-c2cncc(C(=O)N[C@H](C)c3ccccc3)c2)c1 | < 50 | – | < 50 | < 50 | < 50 | < 50 | < 50

Next, values leading:

inhibition at 10 µM (Zap70) [%] | inhibition at 10 µM (fms) [%] | inhibition at 10 µM (fes) [%] | inhibition at 10 µM (human JAK2) [%] | inhibition at 10 µM (hck) [%] | inhibition at 10 µM (abl) [%] | inhibition at 10 µM (human JAK3) [%] | Compound
< 50 | – | < 50 | < 50 | < 50 | < 50 | < 50 | COc1ccc(CNC(=O)c2cncc(-c3cccnc3)c2)cc1
< 50 | < 50 | ≥ 50 | – | < 50 | < 50 | – | O=C(NCc1ccc(F)cc1)c1cncc(-c2ccncc2)c1
< 50 | < 50 | < 50 | < 50 | ≥ 50 | < 50 | – | CC(C)NC(=O)c1cncc(-c2ccc(O)cc2)c1
< 50 | – | < 50 | < 50 | < 50 | < 50 | < 50 | O=C(NCc1cccc(F)c1)c1cncc(-c2ccc3c(c2)OCO3)c1
< 50 | < 50 | < 50 | < 50 | < 50 | < 50 | – | CN(Cc1ccccc1)C(=O)c1cncc(-c2ccc(F)cc2)c1
< 50 | – | < 50 | < 50 | < 50 | < 50 | < 50 | O=C(NCc1ccc(Cl)c(Cl)c1)c1cncc(-c2ccc(O)cc2)c1
< 50 | – | < 50 | – | < 50 | < 50 | < 50 | O=C(NCc1cccc(F)c1)c1cncc(-c2ccc(O)cc2)c1
< 50 | – | < 50 | < 50 | < 50 | < 50 | < 50 | Cc1cc(F)ccc1NC(=O)c1cncc(-c2ccc(F)cc2)c1
< 50 | < 50 | < 50 | – | < 50 | < 50 | – | O=C(NCc1ccc(F)cc1)c1cncc(-c2cccnc2)c1
< 50 | – | – | < 50 | < 50 | < 50 | < 50 | COc1ccc(NC(=O)c2cncc(-c3ccc(O)cc3)c2)c(OC)c1
< 50 | – | < 50 | < 50 | < 50 | < 50 | < 50 | Cc1ccc(CNC(=O)c2cncc(-c3ccc(O)cc3)c2)cc1
< 50 | – | < 50 | < 50 | < 50 | < 50 | < 50 | CC(NC(=O)c1cncc(-c2ccc(O)cc2)c1)c1ccc(F)cc1 (stereo not drawn)
